Where only a bound is given, the exact number is not on record here.

Assay [1] deals with T1, Phospholipase A2 group V (Mus musculus, UniProt P97391).
T1 sequence (P97391 whole entry): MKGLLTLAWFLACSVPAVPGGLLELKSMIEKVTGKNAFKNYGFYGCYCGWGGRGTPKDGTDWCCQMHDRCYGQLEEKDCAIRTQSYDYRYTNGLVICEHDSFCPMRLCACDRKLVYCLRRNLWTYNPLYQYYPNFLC
The assay can be described thus: Inhibition of mouse sPLA2 group 5.

The target of assay [2] is T2, Phospholipase A2 group V (Homo sapiens, UniProt P39877).
T2 sequence (P39877 whole entry): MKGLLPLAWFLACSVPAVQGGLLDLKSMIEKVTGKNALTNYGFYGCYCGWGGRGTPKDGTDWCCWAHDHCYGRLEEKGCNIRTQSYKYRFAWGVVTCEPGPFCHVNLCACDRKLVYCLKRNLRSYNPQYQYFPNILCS
The assay can be described thus: Inhibition of human sPLA2 group 5.

The target in assay [3] is T3, Phospholipase A2, membrane associated (Rattus norvegicus, UniProt P14423).
T3 sequence (P14423 whole entry): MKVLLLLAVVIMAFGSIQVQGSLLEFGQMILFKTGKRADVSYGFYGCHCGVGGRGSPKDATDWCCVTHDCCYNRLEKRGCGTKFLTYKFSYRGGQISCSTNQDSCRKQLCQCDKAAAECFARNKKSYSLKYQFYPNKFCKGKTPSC
Briefly: Inhibition of rat sPLA2 group 2A.

Assay [4] deals with T4, Phospholipase A2, membrane associated (Mus musculus, UniProt P31482).
T4 sequence (P31482 whole entry): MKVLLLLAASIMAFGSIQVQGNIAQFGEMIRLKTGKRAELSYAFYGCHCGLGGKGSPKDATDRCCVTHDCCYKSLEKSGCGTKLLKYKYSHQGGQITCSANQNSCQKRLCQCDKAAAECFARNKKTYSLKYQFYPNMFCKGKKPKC
The assay can be described thus: Inhibition of mouse sPLA2 group 2A.

The target of assay [5] is T5, Phospholipase A2, membrane associated (Homo sapiens, UniProt P14555).
T5 sequence (P14555 whole entry): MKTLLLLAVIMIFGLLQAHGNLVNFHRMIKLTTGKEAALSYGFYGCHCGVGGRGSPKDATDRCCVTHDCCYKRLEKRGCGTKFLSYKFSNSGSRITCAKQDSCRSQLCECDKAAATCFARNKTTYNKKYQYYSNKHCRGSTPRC
Briefly: Inhibition of human sPLA2 group 2A.

For assay [6], the target named is T6, Group 10 secretory phospholipase A2 (Homo sapiens, UniProt O15496).
T6 sequence (O15496 whole entry): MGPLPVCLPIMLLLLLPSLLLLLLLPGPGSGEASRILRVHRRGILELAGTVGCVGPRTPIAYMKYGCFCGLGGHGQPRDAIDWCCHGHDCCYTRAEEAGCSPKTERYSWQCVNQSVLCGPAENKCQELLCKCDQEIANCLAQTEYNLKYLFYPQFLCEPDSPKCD
The assay can be described thus: Inhibition of human sPLA2 group 10.

Assay [7] has as its target T7, Group 10 secretory phospholipase A2 (Mus musculus, UniProt Q9QXX3).
T7 sequence (Q9QXX3 whole entry): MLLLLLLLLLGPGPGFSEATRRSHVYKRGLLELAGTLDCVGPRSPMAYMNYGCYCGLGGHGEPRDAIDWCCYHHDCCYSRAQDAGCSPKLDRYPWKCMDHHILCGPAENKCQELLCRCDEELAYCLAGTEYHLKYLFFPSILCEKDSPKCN
The assay can be described thus: Inhibition of mouse sPLA2 group 10.

Assay [8] has as its target Phospholipase A2, membrane associated (Oryctolagus cuniculus, UniProt P14422). Briefly: Inhibition of rabbit sPLA2 group 2A.

Phospholipase A2, membrane associated (Oryctolagus cuniculus, UniProt P14422), sequence (P14422 whole entry): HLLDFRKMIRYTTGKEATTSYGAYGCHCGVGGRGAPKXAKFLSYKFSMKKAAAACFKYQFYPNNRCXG

Turning to `CCCCCCCCCCCC(=O)c1c(O)cc(O)c(C(=O)CCCCCCCCCCC)c1O` [DIDODECANOYLPHLOROGLUCINOL], the IC50 against Phospholipase A2 group V [1] was 1600 nM; against Phospholipase A2 group V [2], 1600 nM; in assay [3] it was 90 nM; in assay [4], 110 nM; in assay [5], 1600 nM; in assay [6], over 1600 nM. Further, the results for the IC50 in assay [7] and in assay [8] were over 1600 nM and 10 nM, respectively.
As to `CCCCCCCCCCCC(=O)c1c(O)c(C)c(O)c(C(=O)CCCCCCCCCCC)c1O`, the IC50 against Phospholipase A2 group V [1] is 1600 nM; at Phospholipase A2 group V [2] it was 530 nM; in assay [3], 80 nM; in assay [4], 60 nM; in assay [5], 690 nM; in assay [6] it was over 1600 nM. The IC50 in assay [7] was over 1600 nM.
Turning to `CCCCCCCCCCCC(=O)c1c(O)c(C(=O)CCCCCCCCCCC)c(O)c(C2CC(c3ccc(O)cc3)Oc3cc(O)ccc32)c1O` (stereo not drawn), the IC50 was 520 nM on Phospholipase A2 group V [1], 30 nM in assay [4] and over 1600 nM in assay [7].
As to `CCCCCCCCCCCC(=O)c1cc(C)cc(C(=O)CCCCCCCCCCC)c1O`, the IC50 (against Phospholipase A2 group V [1]; on Phospholipase A2 group V [2]; in assay [4]; in assay [5]; in assay [6]; in assay [7]) was over 1600 nM in each case.
Consider `CCCCCCCCCCCC(=O)c1cc(C(=O)CCCCCCCCCCC)c(O)cc1O`, for which the IC50 (on Phospholipase A2 group V [1]; against Phospholipase A2 group V [2]; in assay [4]; in assay [5]; in assay [6]; in assay [7]) was over 1600 nM each time.
For `CCCCCCCCCCCC(=O)c1c(O)c(C)c(O)c(C(C)=O)c1O`, the IC50 (on Phospholipase A2 group V [1]; against Phospholipase A2 group V [2]; in assay [4]; in assay [5]; in assay [6]; in assay [7]) was over 1600 nM throughout.
With `CC(=O)c1c(O)c(C)c(O)c(C(C)=O)c1O`, the IC50 (at Phospholipase A2 group V [1]; on Phospholipase A2 group V [2]; in assay [4]; in assay [5]; in assay [6]; in assay [7]) was over 1600 nM each time.
Regarding `CCCCCCCCCCCCc1c(O)cc(O)c(C(=O)CCCCCCCCCCC)c1O`, the IC50 (at Phospholipase A2 group V [1]; on Phospholipase A2 group V [2]; in assay [4]; in assay [5]; in assay [6]; in assay [7]) was over 1600 nM each time.
Take `Cc1c(O)c(C(=O)Cc2ccccc2)c(O)c(C(=O)Cc2ccccc2)c1O`: the IC50 (against Phospholipase A2 group V [1]; on Phospholipase A2 group V [2]; in assay [4]; in assay [5]; in assay [6]; in assay [7]) was over 1600 nM throughout.
`Oc1ccc(C2CCc3ccc(O)cc3O2)cc1` (stereo not drawn): the IC50 in assay [3], in assay [4] and in assay [5] was over 3300 nM throughout.
For `CCCCCCCCCCCCc1c(O)c(C(C)=O)c(O)c(C(C)=O)c1O`, the IC50 (on Phospholipase A2 group V [1]; on Phospholipase A2 group V [2]; in assay [4]; in assay [5]; in assay [6]; in assay [7]) was over 1600 nM in each case.

Values taken from ChEMBL document CHEMBL1142463 (Bioorg Med Chem Lett, 2008).
